Activity calls are given as the source filed them. No cut-off for these calls is given here.
Assays:
Spodoptera littoralis = assay: Feeding deterrence in Spodoptera littoralis in compound treated lettuce disk assessed as feeding ratio measured as area consumed of treated disks per area consumed of the control disk at 20 ug/disk by disk choice assay; assay type: functional
Artemia salina = assay: Toxicity in Artemia salina (brine shrimp) measured after 24 hr; assay type: organism-based; settings: in vivo
Cladosporium herbarum [1] = assay: Antifungal activity against Cladosporium herbarum assessed as growth inhibition at 23 degC measured after 72 hr; assay type: functional
Cladosporium herbarum [2] = assay: Antifungal activity against Cladosporium herbarum assessed as growth inhibition at 0.006 mg/mL at 23 degC measured after 72 hr; assay type: functional, organism-based

Row | SMILES | Ratio (Spodoptera littoralis) | LC50 (Artemia salina) [ppm] | MIC (Cladosporium herbarum [1]) [mg] | growth inhibition (GI) (Cladosporium herbarum [2])
1 | O=C(OC[C@H](O)c1ccccc1)c1ccccc1 | 0.73 | 7.4 | 0.05 | 
2 | O=C(/C=C\c1ccccc1)OCCc1ccccc1 | 0.5 | < 2.5 |  | 
3 | O=C1C2CC=CCC2C(=O)N1SC(Cl)(Cl)Cl (configuration not stated) [CAPTAN] |  |  | 0.02 | 
4 | CS/C=C/C(=O)OCCc1ccccc1 [ISOTACHIN B] | 0.44 | < 2.5 | 0.006 | Active
5 | CC(=O)N1CCN(c2ccc(OCC3COC(Cn4ccnc4)(c4ccc(Cl)cc4Cl)O3)cc2)CC1 (configuration not stated) [KETOCONAZOLE] |  |  | 0.01 | 
6 | Cl[C@H]1[C@H](Cl)[C@@H](Cl)[C@@H](Cl)[C@H](Cl)[C@H]1Cl [LINDANE] |  | 7.2 |  | 
7 | O=C(OCCc1ccccc1)c1ccccc1 [PHENETHYL BENZOATE] | 0.56 | < 2.5 | 0.1 | 
8 | O=C(/C=C/c1ccccc1)OCCc1ccccc1 [PHENETHYL CINNAMATE] | 0.96 | < 2.5 |  | 
